Earlier results, collected in US20110190266A1, “5,6,6a,7,8,9-HEXAHYDRO-2H-PYRIDOPHTHALAZINONE INHIBITORS OF POLY(ADP-RIBOSE)POLYMERASE (PARP)” (priority 2010, published 2011).
Where two headings read alike, the source gives them in different places.

Tests used:
PARP-1 = PARP-1 (Homo sapiens, UniProt P09874)
[1] = system: BRCA2-deficient cell line V-C8; conditions: BRCA2-deficient V-C8 compared with the BRCA2 wild type control
CAPAN-1 cells = CAPAN-1 cells in DMEM supplemented with FCS (20% v/v), glutamine and antibiotics

PARP-1, sequence (P09874 whole entry, species assumed): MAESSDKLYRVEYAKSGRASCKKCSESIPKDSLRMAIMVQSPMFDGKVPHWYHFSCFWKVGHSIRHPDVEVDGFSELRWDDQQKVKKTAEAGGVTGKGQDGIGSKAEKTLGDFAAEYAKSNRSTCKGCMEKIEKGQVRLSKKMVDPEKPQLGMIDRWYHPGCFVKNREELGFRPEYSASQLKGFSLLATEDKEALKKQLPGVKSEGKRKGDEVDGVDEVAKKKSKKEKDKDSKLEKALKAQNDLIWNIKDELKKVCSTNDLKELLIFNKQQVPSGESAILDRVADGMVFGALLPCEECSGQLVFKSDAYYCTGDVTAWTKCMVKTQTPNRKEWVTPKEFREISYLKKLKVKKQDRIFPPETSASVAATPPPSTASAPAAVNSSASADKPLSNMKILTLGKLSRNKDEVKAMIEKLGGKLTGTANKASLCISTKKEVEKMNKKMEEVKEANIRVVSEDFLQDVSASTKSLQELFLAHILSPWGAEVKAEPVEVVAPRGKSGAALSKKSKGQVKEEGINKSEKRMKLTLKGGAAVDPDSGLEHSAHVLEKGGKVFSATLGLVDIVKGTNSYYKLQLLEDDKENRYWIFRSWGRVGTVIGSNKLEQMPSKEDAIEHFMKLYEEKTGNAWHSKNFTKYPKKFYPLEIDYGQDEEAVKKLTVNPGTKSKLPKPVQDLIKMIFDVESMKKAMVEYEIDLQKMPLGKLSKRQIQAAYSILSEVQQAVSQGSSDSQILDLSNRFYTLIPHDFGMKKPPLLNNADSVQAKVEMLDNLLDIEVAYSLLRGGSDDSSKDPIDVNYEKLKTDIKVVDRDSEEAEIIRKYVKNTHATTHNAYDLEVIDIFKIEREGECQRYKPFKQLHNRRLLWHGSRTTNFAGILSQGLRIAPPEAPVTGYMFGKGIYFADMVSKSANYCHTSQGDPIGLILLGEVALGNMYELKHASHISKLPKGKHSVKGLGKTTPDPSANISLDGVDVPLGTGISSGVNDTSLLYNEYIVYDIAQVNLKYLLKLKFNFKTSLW

Structure (SMILES) | Ki (PARP-1; PARP-1 inhibitor) | sensitivity in clonogenic survival assay [1] | Ki (PARP-1; moderately potent PARP-1 inhibitor) | sensitivity to PARP inhibition in clonogenic survival assay (CAPAN-1 cells) | in vivo efficacy, tumor growth (BRCA2-deficient tumors)
CN(C)Cc1ccc(-c2nc3cccc4c3n2CCNC4=O)cc1 [AG14361] | 5 nM | exhibited sensitivity |  |  | 
Cc1nc2c(O)cccc2c(=O)[nH]1 [NU1025] |  | exhibited sensitivity | 50 nM |  | 
O=C1CCC(=O)N1c1cc(Cc2n[nH]c(=O)c3ccccc23)ccc1F [KU0058684] |  |  |  | showing sensitivity | in vivo efficacy in blocking the growth of BRCA2-deficient tumors
